Measurements reported in article PMC5349447, “Applying a high-throughput fluorescence polarization assay for the discovery of chemical probes blocking La:RNA interactions in vitro and in cells” (PLoS ONE, 2017).
“Also recorded” adds a separate entry of the source.

How the values were obtained:
La:TOPf complex = tested on: T1, La:TOPf complex; experiment: EMSA, compound competition, La-WT:TOPf; type: binding, human; details: TOPf 50 nM
T1 construct: His; made in house; host or cells: E. coli BL21
Protocol: (§1) 12% native TBE polyacrylamide gels were prepared in a Mini-PROTEAN Tetra Handcast System (BioRad). The gel was pre-run for 30 min at 140 V in 1x TBE buffer (45 mM Tris/HCl pH 8.5, 45 mM boric acid, 1 mM EDTA). To prepare the RNA-mix, fluorescence labeled RNA oligoribonucleotides (oligos) were diluted in fluorescence polarization buffer (20 mM Tris/HCl (pH 7.4), 150 mM NaCl, 3.0 mM MgCl2, 0.5 mM EDTA, 0.05% (v/v) IGEPAL), mixed for 10 min at 80°C, and then immediately placed on ice for at least 5 min. All RNA oligos were used at a final concentration of 50 nM. Recombinant La protein was diluted in D-buffer (20 mM Tris/ HCl (pH 7.4), 150mM NaCl, 3mM MgCl2, 0.5mM EDTA, 5% glycerol) and placed on ice until use.
(§2) La titration was performed at final concentrations of 20, 40, 60, 100, 200, 300, 400, 500, 600 nM La. Three different La concentrations were used for compound studies: 60 nM for fD1 RNA, 200 nM for fPolyU RNA, and 150 nM for TOPf RNA studies. Two μl of diluted compound (diluted in 100% DMSO) or 2 μl 100% DMSO (control reaction) was combined with 8 μl La-mix in a 96-well plate. 10 μl RNA-mix was added, mixed for 2 min, and incubated for 10 min at RT in the dark. […] The La-RNA complex (La-RNP) formation was quantified using the ImageQuant TL software. […]

La-RRM1+2:fD1 complex = experiment: EMSA, compound competition, La-RRM1+2:fD1; type: binding, human; details: La-RRM1+2 60 nM, fD1 50 nM
Protocol: as §1, §2

MRC5 cells = experiment: Cell toxicity, CyQUANT cell number, MRC5; type: cell-based, human; details: 48 h, up to 150 μM
Protocol: (§3) Normal fibroblast MRC5 and human embryonic kidney HEK293 cells were purchased from ATCC. Head and neck squamous cell carcinoma cell lines UM-SCC 22A (SCC 22A) and UM-SCC 22B (SCC 22B) were described elsewhere. MRC5 cells were cultured in EMEM plus 10% FBS; SCC 22A, SCC 22B, and HEK293 cells were cultured in advanced DMEM (Gibco) containing 2 mM L-glutamine (Life Technology) and 10% FBS. All cell lines were tested for mycoplasma contamination by applying a MycoSensor PCR Assay kit according to the manufacturer’s instructions (Agilent Technologies).
(§4) To test for cell toxicity the compounds were dissolved in 100% DMSO to a concentration of 100 mM. Subsequently, compounds were diluted in media to 10 mM (10% DMSO), 1 mM (1% DMSO) and tested at 150, 125, 100, 75, 50, 25 μM in SCC 22B and MRC5 cells. To reach this concentration compounds (stock 1 mM, 1% DMSO) were diluted in the cell culture dish (96-well format, 100 μl final volume) as follows: 150 μM = 6.7 fold (final DMSO: 0.15%); 125 μM = 8.0 fold (final DMSO: 0.125%); 100 μM = 10 fold (final DMSO: 0.1%); 75 μM = 13.3 fold (final DMSO: 0.075%); 50 μM = 20 fold (final DMSO: 0.05%); and 25 μM = 40 fold (final DMSO: 0.025%). As a control the highest DMSO concentration of 0.15% was used. Cells were cultured in appropriate media (see above) for 48h. Subsequently, cells were washed twice with 1x PBS and quantified after staining with fluorescence dye (CyQUANT®, Life Technologies). For this experiments 3x10^4 of MRC5 and 1x10^4 SCC 22B cells were plate the day before the experiment.

SCC 22B cells = experiment: Cell toxicity, CyQUANT cell number, SCC 22B; type: cell-based, human; details: for effect on SCC 22B cell numbers: 12.5-150 μM
Protocol: as §3, §4

La-WT:fD1-RNA complex = tested on: T2, La-WT:fD1-RNA complex; experiment: EMSA, compound competition, La-WT:fD1; type: binding, human; details: La-WT 60 nM, fD1 50 nM
T2 construct: His; made in house; host or cells: E. coli BL21
Protocol: as §1
La titration was performed at final concentrations of 20, 40, 60, 100, 200, 300, 400, 500, 600 nM La. Three different La concentrations were used for compound studies: 60 nM for fD1 RNA, 200 nM for fPolyU RNA, and 150 nM for TOPf RNA studies. Two μl of diluted compound (diluted in 100% DMSO) or 2 μl 100% DMSO (control reaction) was combined with 8 μl La-mix in a 96-well plate. 10 μl RNA-mix was added, mixed for 2 min, and incubated for 10 min at RT in the dark. Final concentrations in the reaction: 18 mM Tris/HCl (pH 7.4), 135 mM NaCl, 2.7 mM MgCl2, 0.45 mM EDTA, 0.025% (v/v) IGEPAL, 2% glycerol, 10% DMSO). Samples were loaded onto the pre-run gel without any loading buffer. Gels were run at 160 V for 40 min in the dark. The gels were carefully transferred to a clear plastic wrap and scanned using a Typhoon FLA900 imager. The La-RNA complex (La-RNP) formation was quantified using the ImageQuant TL software.
Next we used our established EMSA to test whether compound C2 and C6 can compete against the three RNA oligos: fD1, fPolyU, and TOPf. All of the EMSA reactions were loaded in the following order: lane 1 contains the RNA oligo alone; lane 2 contains the RNA oligo plus La protein at concentration that shifts 50% of the RNA oligo (positive control); lanes 3–9 contain the RNA oligo, La protein and decreasing concentrations of the compound; and lane 10 contains the RNA oligo and the highest compound concentration (negative control).

SMILES | impairment of La:TOPf complex formation (EMSA), in words (La:TOPf complex; La-WT 200 nM) | concentration blocking La-RRM1+2:fD1 complex formation (EMSA) (La-RRM1+2:fD1 complex) | toxic effect on MRC5 cells (normal fibroblasts) (MRC5 cells) | effect on SCC 22B cell numbers (SCC 22B cells; 48 h) | concentration impairing La:fD1 complex formation (EMSA) (La-WT:fD1-RNA complex; highest concentration tested) | tolerance by SCC 22B cells (SCC 22B cells; 50 μM, 48 hours) | cytotoxic concentration in SCC 22B cells (SCC 22B cells; 48 h) | selectivity: cancer cell numbers compared to effect on normal MRC5 cells (SCC 22B cells; SCC 22B versus MRC5, 48 h) | competition for La:fD1 interaction (EMSA), in words (La-WT:fD1-RNA complex) | concentration blocking La-WT:TOPf complex formation (EMSA) (La:TOPf complex; La-WT 150 nM) | concentration inhibiting La:fD1 complex formation (EMSA) (La-WT:fD1-RNA complex)
O=C(O)c1ccccc1C(=O)c1ccc(O)cc1O [C2, 2-(2,4-dihydroxybenzoyl)benzoic acid] | only at the highest concentration tested | 5 mM | no toxic effect | no effect | 10 mM | – | – | – | – | – | –
Cc1ccc(C(=O)c2ccccc2C(=O)O)c(O)c1 [C2.01, 2-(2-hydroxy-4-methylbenzoyl)benzoic acid] | – | – | no toxic effect | – | – | well tolerated | higher than 50 μM | preferentially reduced cancer cell numbers | lower concentration; also recorded: weak competitor | – | –
CCOC(=O)c1ccc2c(c1)C1C=CCC1C(C(=O)O)N2 (stereo not drawn) [C6, 8-(ethoxycarbonyl)-3a,4,5,9b-tetrahydro-3Hcyclopenta[c]quinoline-4-carboxylic acid] | – | 0.01 mM | toxic effect | reduced SCC 22B cell numbers even at low concentrations | – | – | – | – | – | 10 µM | 10 µM
